Reference: article PMC10383849, “Novel Molecular Consortia of Cannabidiol with Nonsteroidal Anti-Inflammatory Drugs Inhibit Emerging Coronaviruses’ Entry” (Pathogens, 2023)
“Also recorded” adds a separate entry of the source. Where two headings read alike, the source gives them in different places.

What was measured:
SARS-CoV-2 [1] = conditions: lung epithelial cells; ref 41 (Nguyen et al.); cited from earlier work
[2] = tested on: VSV-pseudotypes bearing SARS-CoV-2 S protein; test: microbe, parasite or virus in culture; assay type: cell-based; conditions: for inhibitory effect on SARS-CoV-2 entry (in words): 1-100 μg/mL; for IC50: Severe acute respiratory syndrome coronavirus 2, HEK-293T, read-out: IC50, SARS-CoV-2 entry
[3] = tested on: VSV-pseudotypes bearing SARS-CoV-1 S protein; test: microbe, parasite or virus in culture; assay type: cell-based; conditions: for inhibitory effect on SARS-CoV-1 virus entry (in words): 1-100 μg/mL
[4] = tested on: influenza virus A/Puerto Rico/8/34; assay type: cell-based
[5] = tested on: influenza virus A/Puerto Rico/8/34; assay type: cell-based; remark: listed apart in the source
SARS-CoV-2 [6] = conditions: ref 43 (van Breemen et al.); cited from earlier work
influenza virus = conditions: cited from earlier work

For `C=C(C)[C@@H]1CCC(CO)=C[C@H]1c1c(O)cc(CCCCC)cc1O` [7-OH-CBD], the “inhibition of SARS-CoV-2 replication (in words)” value (SARS-CoV-2 [1]) is listed as “inhibit SARS-CoV-2 replication”.
In the case of `C=C(C)[C@@H]1CCC(C)=C[C@H]1c1c(O)cc(CCCCC)cc1O` [CBD, cannabidiol], the “inhibition of SARS-CoV-2 replication (in words)” value (SARS-CoV-2 [1]) is given as “inhibit SARS-CoV-2 replication”.
In the case of `C=C(C)C1CCC(C)=CC1c1c(OC(=O)C(C)c2ccc(CC(C)C)cc2)cc(CCCCC)cc1OC(=O)C(C)c1ccc(CC(C)C)cc1` (centres unmarked) [CBD-I], the “inhibitory effect on SARS-CoV-2 entry (in words)” value [2] is reported as “significantly inhibited; also recorded: significantly reduced”, the IC50 [2] is reported as under 1 mg/L and the “inhibitory effect on SARS-CoV-1 virus entry (in words)” value [3] is reported as “did not find any significant inhibitory effect”.
In the case of `C=C(C)C1CCC(C)=CC1c1c(OC(=O)C(C)c2cccc(C(=O)c3ccccc3)c2)cc(CCCCC)cc1OC(=O)C(C)c1cccc(C(=O)c2ccccc2)c1` (centres unmarked) [CBD-K], the “inhibitory effect on SARS-CoV-2 entry (in words)” value [2] is reported as “non-significant decrease in luciferase activity; also recorded: did not significantly affect” and the “inhibitory effect on SARS-CoV-1 virus entry (in words)” value [3] is reported as “did not find any significant inhibitory effect”.
For `C=C(C)C1CCC(C)=CC1c1c(OC(=O)C(C)c2ccc3cc(OC)ccc3c2)cc(CCCCC)cc1OC(=O)C(C)c1ccc2cc(OC)ccc2c1` (centres unmarked) [CBD-N], the “viral copy numbers in the supernatants vs mock” value [4] was “did not find any effect”, the “fold inhibition of SARS-CoV-2 entry” value [2] was “greater than 10 fold” and the “inhibitory effect on SARS-CoV-2 entry (in words)” value [2] was “significantly inhibited; also recorded: significantly reduced”. The IC50 [2] was under 1 mg/L, the “fold reduction in luciferase activity, SARS-CoV-1” value ([3]; 1 μg/mL) was “approximately 2 fold” and the “fold decrease in luciferase activity, SARS-CoV-1” value ([3]; 50 μg/mL) was “greater than 10 fold”. The “fold decrease in luciferase activity, SARS-CoV-1” value ([3]; 100 μg/mL) was “greater than 10 fold”, the “inhibitory effect on SARS-CoV-1 virus entry (in words)” value [3] was “significant reduction; also recorded: significant inhibitory activity” and the IC50 ([3]; Severe acute respiratory syndrome coronavirus, HEK-293T, read-out: IC50, SARS-CoV-1 virus entry) was under 1 mg/L. The “viral copy numbers in the supernatants vs mock” value [5] was “did not find any effect”.
In the case of `C=C(C)[C@@H]1CCC(C)=C[C@H]1c1c(O)cc(CCCCC)c(C(=O)O)c1O` [CBDA, cannabidiolic acid], the “block of SARS-CoV-2 entry into cells (in words)” value (SARS-CoV-2 [6]) is given as “significantly block SARS-CoV-2 entry”.
For `CCCCCc1cc(O)c(C/C=C(\C)CCC=C(C)C)c(O)c1C(=O)O` [CBGA, cannabigerolic acid], the “block of SARS-CoV-2 entry into cells (in words)” value (SARS-CoV-2 [6]) is listed as “significantly block SARS-CoV-2 entry”.
In the case of `COc1ccc2cc([C@H](C)C(=O)O)ccc2c1` [naproxen], the “anti-influenza virus activity (in words)” value (influenza virus) is given as “broad anti-influenza virus activity”.
